Source: patent US20200371122A1, “BIOMARKER FOR SENESCENT CELLS” (Buck Institute for Research on Aging, priority 2017, published 2020)

How the values were obtained:
Assay type in all cases: cell-based, human
SASP factors = test: qPCR of SASP and PTGS mRNAs in non-senescent cells treated with eicosanoids; settings: 10 μM
Protocol: RNA was extracted from cells or tissues using commercially available kits (Isolate II—Bioline for cells; Direct-zol—Zymo for tissues) according to the manufacturer's instructions. cDNA synthesis was performed using a High Capacity cDNA Reverse Transcription Kit (Thermo Fisher) according to the manufacturer's instructions. Quantitative PCR was performed on a LightCycler 480 II (Roche) using primers and probes designed for the Universal Probe Library. Primers and probes used for human transcripts were ACTB: 5′-CCAACCGCGAGAAGATGA (SEQ ID NO:1), 5′-TCCATCACGATGCCAGTG (SEQ ID NO:2), Probe #64; TUBA: 5′-cttcgtctccgccatcag (SEQ ID NO:3), 5′-ttgccaatctggacacca (SEQ ID NO:4), Probe #58; ALOX5: 5′-[…] (SEQ ID NO:5), 5′-[…] (SEQ ID NO:6), Probe #64; ALOX5AP: 5′-ggtctgcggggctacttt (SEQ ID NO:7), 5′-[…] (SEQ ID NO:8), Probe #18; ALOX12: 5′-[…] (SEQ ID NO:9), 5′-agccaggtcgtcaggag (SEQ ID NO:10), Probe #32; ALOX15: 5′-[…] (SEQ ID NO:11), 5′-[…] (SEQ ID NO:12), Probe #76; ALOX15B: 5′-[…] (SEQ ID NO:13), 5′-actgggaggcgaagaagg (SEQ ID NO:14), Probe #51; AKR1C1: 5′-catgcctgtcctgggattt (SEQ ID NO:15), 5′-[…] (SEQ ID NO:16), Probe #49; AKR1C2: 5′-ctatgcgcctgcagaggt (SEQ ID NO:17), 5′-[…] (SEQ ID NO:18), Probe #31; AKR1C3: 5′-[…] (SEQ ID NO:19), 5′-[…] (SEQ ID NO:20), Probe #78; CYSLTR2: 5′-[…] (SEQ ID NO:21), 5′-[…] (SEQ ID NO:22), Probe #18; DPEP1: 5′-gacgtcctgaggctggtg (SEQ ID NO:23), 5′-[…] (SEQ ID NO:24), Probe #9 (SEQ ID NO:25), ELOVL2: 5′-[…] (SEQ ID NO:26), 5′-[…] (SEQ ID NO:27), Probe #53; ELOVL4: 5′-catttggcccatggattc (SEQ ID NO:28), 5′-[…] (SEQ ID NO:29), Probe #31; ELOVL5: 5′-cccttccatgcgtccata (SEQ ID NO:30), 5′-[…] (SEQ ID NO:31), Probe #31; EPHX2: 5′-ttctgctggacaccctgaa (SEQ ID NO:32), 5′-[…] (SEQ ID NO:33), Probe #45; GPX4: 5′-ttcccgtgtaaccagttcg (SEQ ID NO:34), 5′-[…] (SEQ ID NO:35), Probe #36; LTA4H: 5′-ctgctctcacggtccagtc (SEQ ID NO:36), 5′-[…] (SEQ ID NO:37), Probe #64; LTBR2: 5′-[…] (SEQ ID NO:38), 5′-[…] (SEQ ID NO:39), Probe #33; LTC4S: 5′-[…] (SEQ ID NO:40), 5′-[…] (SEQ ID NO:41), Probe #18; PTGDS: 5′-[…] (SEQ ID NO:42), 5′-[…] […]

IMR-90 fibroblasts = test: Induction of senescence in non-senescent cells by prostaglandins or 5-LOX pathway products (EdU, SA-B-gal, p21, immunoblot)
Protocol: RNA was extracted from cells or tissues using commercially available kits (Isolate II—Bioline for cells; Direct-zol—Zymo for tissues) according to the manufacturer's instructions. cDNA synthesis was performed using a High Capacity cDNA Reverse Transcription Kit (Thermo Fisher) according to the manufacturer's instructions. Quantitative PCR was performed on a LightCycler 480 II (Roche) using primers and probes designed for the Universal Probe Library. Primers and probes used for human transcripts were ACTB: 5′-CCAACCGCGAGAAGATGA (SEQ ID NO:1), 5′-TCCATCACGATGCCAGTG (SEQ ID NO:2), Probe #64; TUBA: 5′-cttcgtctccgccatcag (SEQ ID NO:3), 5′-ttgccaatctggacacca (SEQ ID NO:4), Probe #58; ALOX5: 5′-[…] (SEQ ID NO:5), 5′-[…] (SEQ ID NO:6), Probe #64; ALOX5AP: 5′-ggtctgcggggctacttt (SEQ ID NO:7), 5′-[…] (SEQ ID NO:8), Probe #18; ALOX12: 5′-[…] (SEQ ID NO:9), 5′-agccaggtcgtcaggag (SEQ ID NO:10), Probe #32; ALOX15: 5′-[…] (SEQ ID NO:11), 5′-[…] (SEQ ID NO:12), Probe #76; ALOX15B: 5′-[…] (SEQ ID NO:13), 5′-actgggaggcgaagaagg (SEQ ID NO:14), Probe #51; AKR1C1: 5′-catgcctgtcctgggattt (SEQ ID NO:15), 5′-[…] (SEQ ID NO:16), Probe #49; AKR1C2: 5′-ctatgcgcctgcagaggt (SEQ ID NO:17), 5′-[…] (SEQ ID NO:18), Probe #31; AKR1C3: 5′-[…] (SEQ ID NO:19), 5′-[…] (SEQ ID NO:20), Probe #78; CYSLTR2: 5′-[…] (SEQ ID NO:21), 5′-[…] (SEQ ID NO:22), Probe #18; DPEP1: 5′-gacgtcctgaggctggtg (SEQ ID NO:23), 5′-[…] (SEQ ID NO:24), Probe #9 (SEQ ID NO:25), ELOVL2: 5′-[…] (SEQ ID NO:26), 5′-[…] (SEQ ID NO:27), Probe #53; ELOVL4: 5′-catttggcccatggattc (SEQ ID NO:28), 5′-[…] (SEQ ID NO:29), Probe #31; ELOVL5: 5′-cccttccatgcgtccata (SEQ ID NO:30), 5′-[…] (SEQ ID NO:31), Probe #31; EPHX2: 5′-ttctgctggacaccctgaa (SEQ ID NO:32), 5′-[…] (SEQ ID NO:33), Probe #45; GPX4: 5′-ttcccgtgtaaccagttcg (SEQ ID NO:34), 5′-[…] (SEQ ID NO:35), Probe #36; LTA4H: 5′-ctgctctcacggtccagtc (SEQ ID NO:36), 5′-[…] (SEQ ID NO:37), Probe #64; LTBR2: 5′-[…] (SEQ ID NO:38), 5′-[…] (SEQ ID NO:39), Probe #33; LTC4S: 5′-[…] (SEQ ID NO:40), 5′-[…] (SEQ ID NO:41), Probe #18; PTGDS: 5′-[…] (SEQ ID NO:42), 5′-[…] (SEQ ID NO:43), Probe #36; PTGES: 5′-agagatgcctgcccacag (SEQ ID NO:44), 5′-tggccaccacgtacatctt (SEQ ID NO:45), Probe #4; PTGES2: 5′-[…] (SEQ ID NO:46), 5′-[…] (SEQ ID NO:47), Probe #49; PTGES3 (SEQ ID NO:48), 5′-[…] (SEQ ID NO:49), 5′-[…] (SEQ ID NO:50), Probe #48; PTGIS: 5′-[…] (SEQ ID NO:51), 5′-[…] (SEQ ID NO:52), Probe #45; PTGR1: 5′-atgatggggcagcaagtg (SEQ ID NO:53), 5′-cccatcagaaatggagtgc (SEQ ID NO:54), Probe #64; PTGS1: 5′-[…] (SEQ ID NO:55), 5′-gtggtggtccatgttcctg (SEQ ID NO:56), Probe #81; PTGS2: 5′-gatccccagggctcaaac (SEQ ID NO:57), 5′-[…] (SEQ ID NO:58), Probe #61; TBXAS1: 5′-[…] (SEQ ID NO:59), 5′-tgcctcccgtgtgaatct (SEQ ID NO:60), Probe #73; AREG: 5′-[…] (SEQ ID NO:61), 5′-[…] (SEQ ID NO:62), Probe #73; CCL2: 5′-AGTCTCTGCCGCCCTTCT (SEQ ID NO:63), 5′-GTGACTGGGGCATTGATTG (SEQ ID NO:64), Probe #40; CCL27: 5′-[…] (SEQ ID NO:65), 5′-gctgggtggcagtaggaat (SEQ ID NO:66), Probe #18; CXCL1: 5′-[…] (SEQ ID NO:67), 5′-[…] (SEQ ID NO:68), Probe #52; HGF: 5′-[…] (SEQ ID NO:69), 5′-[…] (SEQ ID NO:70), Probe #49; ILIA: 5′-[…] (SEQ ID NO:71), 5′-[…] (SEQ ID NO:72), Probe #6; IL1B: 5′-[…] (SEQ ID NO:73), 5′-[…] (SEQ ID NO:74), Probe #78; IL6: 5′-[…] (SEQ ID NO:75), 5′-gaaggcagcaggcaacac (SEQ ID NO:76), Probe #45; IL8: 5′-[…] (SEQ ID NO:77), 5′-atggttccttccggtggt (SEQ ID NO:78), Probe #72; IL10: 5′-[…] (SEQ ID NO:79), 5′-[…] (SEQ ID NO:80), Probe #67; MMP3: 5′-[…] (SEQ ID NO:81), 5′-[…] (SEQ ID NO:82), Probe #36; PDGFA: 5′-[…] (SEQ ID NO:83), 5′-[…] (SEQ ID NO:84), Probe #80; VEGF: 5′-[…] (SEQ ID NO:85), 5′-[…] (SEQ ID NO:86), Probe #50; P21WAF1(CDKN1A): 5′-[…]

IL-6 secretion = test: IL-6 ELISA on non-senescent cells treated with prostaglandins; settings: 10 μM, 10 days
Protocol: Human fetal lung fibroblasts (IMR-90) were cultured in Dulbecco's modified eagle medium (DMEM) supplemented with 10% FBS and penicillin/streptomycin. LL 29 (AnHa) cells were obtained from the ATCC and growth to confluence using the ATCC protocol, but were subcultured as described for IMR-90 before initiation of all experiments. Quiescence was induced by replacing culture media with media containing 0.2% FBS. MCF-7 and MDA-MB-231 breast cancer cells were cultured in RPMI supplemented with 10% FBS and penicillin/streptomycin. All cells were cultured at 3% O2, and used between 25 and 40 population doublings. All cells were mycoplasma free.
3×10^4 cells in 12-well plates were treated as indicated in the text, and cultured in 0.5-1 ml serum-free DMEM for 24 hr. CM were collected and clarified at 2,000×g for 10 min. Supernatants were transferred to a tube; cells were trypsinized and counted. CM (2.5 μl) were analyzed by bead-based ELISAs (AlphaLISA, Perkin-Elmer) as instructed by the manufacturer and normalized to cell number.

[1] = tested on: IMR-90 fibroblasts depleted of p53 by shRNA; test: Prostaglandin treatment of p53-depleted (shp53) IMR-90 fibroblasts (Ki67, cleaved caspase 3); settings: shp53 cells, 3 days
Protocol: For EdU labeling, cells were cultured with EdU (10 μM) for 24 h, fixed in 4% buffered formalin for 10 min, washed in PBS, and permeabilized in 0.5% Triton X-100 for 30 min. Cells were treated as instructed by the manufacturer Life Technologies Cat #C10337). For immunofluorescence, cells were blocked in 10% normal goat serum for 30 min, washed, and incubated overnight in antibodies to Ki67 (Abcam) or cleaved caspase 3 (Cell Signaling). Cell were then washed, incubated in fluorescent secondary antibodies, and mounted using vectashield mounting medium with DAPI.

Row | Compound | PTGES mRNA (SASP factors) | cell size and proliferation once prostaglandin was removed (IMR-90 fibroblasts; 10 μM 7 days, then 10 days release) | senescence-associated beta-galactosidase (IMR-90 fibroblasts; 10 μM, 10 days) | IL-6 secretion (IL-6 secretion) | SASP factor mRNAs (SASP factors; for PGJ2 and 15d-PGJ2 most factors except VEGF and PDGF) | levels of LMNB1 and cellular HMGB1 (IMR-90 fibroblasts; 10 μM, 10 days) | p21 gene expression (IMR-90 fibroblasts; 10 μM, 10 days) | p21 protein accumulation (IMR-90 fibroblasts; 10 μM, 10 days, immunoblot) | p53 stabilization (IMR-90 fibroblasts; 10 μM, 10 days, immunoblot) | p53 phosphorylation or acetylation (IMR-90 fibroblasts; 10 μM, 10 days, western blot) | expression of MMP3 and secretion of IL-6 on removal of the prostaglandin (IMR-90 fibroblasts; release after 7 days at 10 μM) | apoptosis (positivity for cleaved caspase 3) [1] | continued cell division (Ki67 positivity) after loss of p53 [1]
1 | CCCCC[C@H](O)/C=C/[C@H]1[C@H](O)CC(=O)[C@@H]1C/C=C\CCCC(=O)O [PGE2, prostaglandin E2] | elevated | became smaller and resumed proliferation | induced |  |  |  |  |  |  |  |  |  | 
2 | CCCCC[C@H](O)/C=C/[C@H]1C(=O)C=C[C@@H]1C/C=C\CCCC(=O)O [PGJ2] |  |  | induced | highest induction | strongly induced | reduced levels | induced | induced | stabilized | without increasing | reduced | underwent apoptosis | did not allow
